Results taken from the Deep4Chem optical property database.

Assay: solvent given as SMILES

`Cc1ccc(/C2=C3N=C(C(c4ccccc4)=C/3c3ccccc3)/C(c3ccc(C)cc3)=c3\[nH]/c(c(-c4ccccc4)c3-c3ccccc3)=C(/c3ccc(C)cc3)C3=N/C(=C(/c4ccc(C)cc4)c4[nH]c2c(-c2ccccc2)c4-c2ccccc2)C(c2ccccc2)=C3c2ccccc2)cc1` gave a fluorescence lifetime (in ClCCl) of 0.472 ns.
`CCOC(=O)c1ccccc1-c1c2ccc(=O)cc-2oc2cc(OC(=O)[C@H](CSCc3ccc(C)cc3)NC(=O)OC(C)(C)C)ccc12` gave a fluorescence lifetime (in C1CCOC1) of 2.49 ns, a fluorescence lifetime (in CC#N) of 2.97 ns and a fluorescence lifetime (in CCO) of 3.29 ns. For the same compound, the fluorescence lifetime (in CS(C)=O) was 4.06 ns.
For `C[Si](C)(C)C#Cc1cc2ccc3cc(C#C[Si](C)(C)C)cc4ccc(c1)c2c34`, the fluorescence lifetime (in Cc1ccccc1) was 99 ns.
`COc1ccc2c3c(OC)c4ccccc4c(OC)c3n(C)c2c1` showed a fluorescence lifetime (in C1CCCCC1) of 14.3 ns, a fluorescence lifetime (in CC#N) of 19.1 ns and a fluorescence lifetime (in CO) of 18.3 ns. The fluorescence lifetime (in ClCCl) was 12.1 ns.
Work on `Cc1ccc2nc3[nH]c(=O)[nH]c(=O)c3nc2c1` yielded a fluorescence lifetime (in CC#N) of 0.6 ns and a fluorescence lifetime (in ClCCCl) of 0.49 ns.
`Cn1cc(-c2nc3ccccc3nc2/C=C/N2CCCC2)c2ccccc21` showed a fluorescence lifetime (in C1CCCCC1) of 1.27 ns, a fluorescence lifetime (in C1CCOC1) of 5.12 ns and a fluorescence lifetime (in CC#N) of 6.75 ns. The fluorescence lifetime (in CC(C)=O) was 6.42 ns, the fluorescence lifetime (in CCO) was 0.75 ns and the fluorescence lifetime (in CO) was 0.19 ns. The fluorescence lifetime (in CS(C)=O) was 7.19 ns, the fluorescence lifetime (in Cc1ccccc1) was 3.62 ns and the fluorescence lifetime (in ClCCl) was 7.01 ns.
`c1ccc2c(-c3cc(-c4nccs4)nc(-c4nccs4)c3)c3ccccc3cc2c1` showed a fluorescence lifetime (in CC#N) of 2.32 ns, a fluorescence lifetime (in CCCCCC) of 3.31 ns and a fluorescence lifetime (in CO) of 2.5 ns. For the same compound, the fluorescence lifetime (in ClC(Cl)Cl) was 2.34 ns.
With `CCCCCCN1C(=O)c2cccc3c(-c4ccc(OC)s4)ccc(c23)C1=O` the fluorescence lifetime (in ClC(Cl)Cl) was 3.88 ns.
With `NS(=O)(=O)c1ccc(N2N=C(c3ccc(O)cc3)CC2c2ccc([N+](=O)[O-])cc2)cc1` (stereo unspecified) the fluorescence lifetime (in C1CCOC1) was 2.19 ns, the fluorescence lifetime (in C1COCCO1) was 2.06 ns and the fluorescence lifetime (in CC#N) was 2.21 ns. For the same compound, the fluorescence lifetime (in CC(C)O) was 1.42 ns, the fluorescence lifetime (in CCO) was 1.31 ns and the fluorescence lifetime (in CCOC(C)=O) was 2.37 ns. For the same compound, the fluorescence lifetime (in CN(C)C=O) was 2.51 ns, the fluorescence lifetime (in CO) was 1.4 ns and the fluorescence lifetime (in CS(C)=O) was 2.43 ns. For the same compound, the fluorescence lifetime (in O) was 2.94 ns.
For `COc1ccc(-c2csc(/C(C#N)=C/c3ccc(Cl)cc3)n2)cc1`, the fluorescence lifetime (in CC#N) was 3.61 ns.
For `c1ccc(N(c2ccccc2)c2ccc(-c3ccc4c(c3)C3(c5cc(-c6ccc(N(c7ccccc7)c7ccccc7)cc6)ccc5-4)c4ccccc4N(c4ccccc4)c4ccccc43)cc2)cc1`, the fluorescence lifetime (in ClCCl) was 1.2 ns.
Compound `CNc1ccc2c(c1)C(=O)c1ccccc1-2` has a fluorescence lifetime (in C1CCCCC1) of 3.1 ns and a fluorescence lifetime (in c1ccccc1) of 0.63 ns.
Compound `c1cc2c3c(cccc3c1)C(N1CCOCCOCCN(C3=Nc4cccc5cccc3c45)CCOCC1)=N2` has a fluorescence lifetime (in CC#N) of 0.51 ns.
`c1ccc(C[n+]2cc3ccc4c[n+](Cc5ccccc5)cc5ccc(c2)c3c45)cc1` gave a fluorescence lifetime (in CC#N) of 4.3 ns.
Work on `COCCOCCOCCOCC(COCCOCCOCCOC)Oc1cc(/C=C/c2ccc(/C=C(\C#N)c3ccc(C(F)(F)F)cc3)cc2)c(OC(COCCOCCOCCOC)COCCOCCOCCOC)cc1/C=C/c1ccc(/C=C(\C#N)c2ccc(C(F)(F)F)cc2)cc1` yielded a fluorescence lifetime (in ClCCl) of 1.6 ns.
Compound `CCCC(=O)c1c2c(c(C(=O)CCC)c3c1OC(CC(=O)OC)(C(=O)OC)O3)OCO2` has a fluorescence lifetime (in CC#N) of 22.5 ns, a fluorescence lifetime (in CCCCCC) of 18.5 ns and a fluorescence lifetime (in CCO) of 17.7 ns. The fluorescence lifetime (in CO) was 11.9 ns and the fluorescence lifetime (in ClCCl) was 25.1 ns.
Compound `CCC12C(=C3C(=C4c5ccc(-c6ccc(C(C)=O)s6)cc5S(=O)(=O)C41CC)C(F)(F)C(F)(F)C3(F)F)c1ccc(-c3ccc(C(C)=O)s3)cc1S2(=O)=O` (stereo unspecified) has a fluorescence lifetime (in C1COCCO1) of 1.9 ns.
With `Nc1cc([NH3+])cc(-c2nc3ccccc3s2)c1` the fluorescence lifetime (in O) was 3.87 ns.
In the case of `C(=C\c1ccc(-c2ccc(/C=C/c3ccc(-n4c5ccccc5c5ccccc54)cc3)s2)s1)/c1ccc(-n2c3ccccc3c3ccccc32)cc1`, the fluorescence lifetime (in C1CCOC1) is reported as 1.06 ns, the fluorescence lifetime (in CC#N) is reported as 1.08 ns and the fluorescence lifetime (in CC(C)=O) is reported as 1.08 ns. The fluorescence lifetime (in CN(C)C=O) was 1.08 ns and the fluorescence lifetime (in Cc1ccccc1) was 1.05 ns.
In the case of `Cc1cc(C)c(B(c2ccc(N(c3ccccc3)c3ccccc3)cc2)c2c(C)cc(C)cc2C)c(C)c1`, the fluorescence lifetime (in Cc1ccccc1) is reported as 4 ns.
Work on `CCN1C(=CC2=C([O-])C(=Cc3[se]c4ccccc4[n+]3CC)C2=O)[Se]c2ccccc21` yielded a fluorescence lifetime (in CO) of 1.17 ns and a fluorescence lifetime (in ClC(Cl)Cl) of 4.15 ns.
`C(=C\c1ccnc2ccccc12)/c1c2ccccc2cc2ccccc12` gave a fluorescence lifetime (in CC1CCCCC1) of 2.6 ns and a fluorescence lifetime (in CC#N) of 0.088 ns.
In the case of `CN(C)c1ccc(/C=C/C=C/c2ccc(C#N)cc2)cc1`, the fluorescence lifetime (in C1CCOC1) is reported as 0.35 ns, the fluorescence lifetime (in CC#N) is reported as 0.56 ns and the fluorescence lifetime (in CCCCCC) is reported as 0.28 ns. For the same compound, the fluorescence lifetime (in CCCCOCCCC) was 0.28 ns, the fluorescence lifetime (in CCO) was 0.51 ns and the fluorescence lifetime (in CCOCC) was 0.32 ns.
